Results from US20080033008A1, “COMPOSITIONS AND METHODS FOR TREATING, CONTROLLING, REDUCING, OR AMELIORATING INFECTIONS AND SEQUELAE THEREOF” (priority 2006, published 2008).
“And” between values parts separate entries of the source, which are not always exact repeats. Equal values may be shown once. “Also recorded” adds a separate entry of the source.

Key:
[1] = system: neovascularization and angiogenesis; details: X. Xin et al., J. Biol. Chem. 274:9116-9121 (1999); cited from earlier work
[2] = Rabbit paracentesis model of ocular inflammation, overall conclusions; format: in vivo; details: 0.1%, 0.5% and 1% topical formulations; preliminary conclusions; listed as BOL-303242-X
Source text: Inflammatory processes are multidimensional in origin, and are characterized by complex cellular and molecular events involving numerous components all of which have not been identified. Prostaglandins are among these mediators and play an important role in certain forms of ocular inflammation. Paracentesis of the anterior chamber in the rabbit eye induces inflammatory reaction due to the disruption of the blood-aqueous barrier (“BAB”), which is mediated, at least in part, by prostaglandin E2 [References 1-3 below]. Intraocular or topical administration of PGE2 disrupts the BAB. [Reference 4, below] The treatment schedule adopted in this study was similar to the clinical NSAIDs (Ocufen) treatment schedule used by surgeons for patients before cataract surgery.
(§1) Each rabbit was placed in a restraint device and tagged with the alphanumeric code. The formulations were instilled (50 μl) into the conjunctival sac of both eyes 180, 120, 90 and 30 min before the first paracentesis; then 15, 30, 90 min after the first paracentesis. […]
Pupillary diameter, PGE2, protein, PMN, and MPO were expressed as mean ±SEM. […] Clinical score was expressed as % of eyes and the statistical analysis was performed using Kruskal-Wallis followed by a Dunn post hoc test. […]

[3] = Clinical evaluation by slit lamp (clinical score), rabbit paracentesis model; format: in vivo
Protocol: (§2) Each rabbit was placed in a restraint device and tagged with the alphanumeric code. The formulations were instilled (50 μl) into the conjunctival sac of both eyes 180, 120, 90 and 30 min before the first paracentesis; then 15, 30, 90 min after the first paracentesis. To perform the first paracentesis the animals were anaesthetized by intraveneous injection of 5 mg/kg Zoletil® (Virbac; 2.5 mg/kg tiletamine HCl and 2.5 mg/kg zolazepam HCl) and one drop of local anesthetic (Novesina®, Novartis) was administered to the eye. Anterior chamber paracentesis was performed with a 26 G needle attached to a tuberculin syringe; the needle was introduced into the anterior chamber through the cornea, taking care not to damage the tissues. Two hours after the first paracentesis, the animals were sacrificed with 0.4 ml Tanax® (Intervet International B.V.) and the second paracentesis was performed. About 100 μl of aqueous humor were removed at the second paracentesis. Aqueous humor was immediately split in four aliquots and stored at −80° C. until analysis. Then both eyes were enucleated and the iris-ciliary body was carefully excised, placed in polypropylene tubes, and stored at −80° C. until analysis.
The clinical evaluation of both eyes was performed by a slit lamp (4179-T; Sbisa, Italy) at 180 min and 5 min before the first paracentesis and 5 min before the second paracentesis. The clinical score was assigned according to the following scheme:
1=discrete dilatation of iris and conjunctival vessels
2=moderate dilatation of iris and conjunctival vessels
3=intense iridal hyperemia with flare in the anterior chamber
4=intense iridal hyperemia with flare in the anterior chamber and presence of fibrinous exudates.

Myeloperoxidase (MPO) = Myeloperoxidase (MPO) activity in iris-ciliary body, rabbit paracentesis model; format: in vivo; details: iris-ciliary body samples collected after the second paracentesis, raw data per eye (DX/SX)
Protocol: 3.9 g of NaH2PO4 2H2O were dissolved in a volumetric flask to 500 ml with water. The pH was adjusted to pH=6 with 3N NaOH.
0.5 g of hexa-decyl-trimethyl-ammonium bromide was dissolved in 100 ml phosphate buffer.
The solution was prepared freshly. Ten microliters of H2O2 (30 wt. %) were diluted to 1 ml with water (solution A). 7.5 mg o-dianisidine 2HCl were dissolved in 45 ml of phosphate buffer and 75 μl of solution A were added.
as §1
The activity of MPO was measured as previously described by Williams et al. The iris-ciliary bodies were carefully dried, weighed and immersed in 1 ml of hexa-decyl-trimethyl-ammonium bromide solution. […] The change in absorbance at 460 nm was continuously monitored for 5 min by a spectrophotometer (UV/Vis Spectrometer Lambda EZ 201; Perkin Elmer). The slope of the line (Δ/min) was determined for each sample and used to calculate the number of units of MPO in the tissue as follows:
Values were expressed as units of MPO/g of tissue.

[4] = Very preliminary data (not shown) on side effects of corticosteroids
[5] = Pupillary diameter measurement, rabbit paracentesis model; format: in vivo; details: raw data per eye; for Diameter (mm) T2: −5 min: 5 min before the first paracentesis; for Diameter (mm) T3: +115 min: 5 min before the second paracentesis; for Diameter (mm) T1: −180 min: −180 min (basal)
Protocol: as §2
The pupillary diameter of both eyes was measured with a Castroviejo caliper 180 min and 5 min before the first paracentesis and 5 min before the second paracentesis.

SMILES	Clinical score expressed as percentage of eyes, Score (%) 3 ([3]; 0.1% topical, +115 min) [%]	Clinical score expressed as percentage of eyes, Score (%) 0 ([3]; 0.1% topical, −5 min) [%]	Clinical score expressed as percentage of eyes, Score (%) 0 ([3]; 0.1% topical, −180 min (basal)) [%]	Clinical score expressed as percentage of eyes, Score (%) 0 ([3]; 0.5% topical, −5 min) [%]	Clinical score expressed as percentage of eyes, Score (%) 0 ([3]; 0.5% topical, −180 min (basal)) [%]	Diameter (mm) T2: −5 min ([5]; 0.1% topical)	Diameter (mm) T3: +115 min ([5]; 0.1% topical)	Diameter (mm) T1: −180 min ([5]; 0.1% topical)	Diameter (mm) T2: −5 min ([5]; 0.5% topical)	Diameter (mm) T3: +115 min ([5]; 0.5% topical)	Diameter (mm) T1: −180 min ([5]; 0.5% topical)	also measured
CCCCCC=CC=C1C(=O)C=C[C@@H]1CC=CCCCC(=O)O [15-deoxy-Δ-12,14-prostaglandin J2]	–	–	–	–	–	–	–	–	–	–	–	Neovascularization and angiogenesis in the rat cornea [1]: inhibit neovascularization and angiogenesis
Cc1ccc2c(NCC(O)(CC(C)(C)c3cc(F)cc4c3OCC4)C(F)(F)F)cccc2n1 (centres unmarked) [BOL]	25	100	100	100	100	6.5 mm and 7.0 mm and 7.5 mm	5.0 mm and 6.0 mm and 6.5 mm and 5.5 mm	6.5 mm and 7.0 mm and 7.5 mm	8.0 mm and 7.0 mm and 7.5 mm	6.5 mm and 6.0 mm and 7.0 mm	8.0 mm and 7.0 mm and 7.5 mm	Anti-inflammatory activity in the rabbit paracentesis model (conclusion) [2]: active in this model; also recorded: as effective an anti-inflammatory drug as some of the commonly accepted prior-art steroids or NSAID; Clinical score expressed as percentage of eyes, Score (%) 2 ([3]; 0.1% topical, +115 min): 75%; Clinical score expressed as percentage of eyes, Score (%) 2 ([3]; 1% topical, +115 min): 100%; Clinical score expressed as percentage of eyes, Score (%) 0 ([3]; 1% topical, −5 min): 100%; Clinical score expressed as percentage of eyes, Score (%) 0 ([3]; 1% topical, −180 min (basal)): 100%; MPO (Myeloperoxidase (MPO); 0.1% treatment): 1.00 Unit/g and 0.61 Unit/g and 0.65 Unit/g; MPO (Myeloperoxidase (MPO); 0.5% treatment): 0.85 Unit/g and 0.93 Unit/g and 0.79 Unit/g and 0.75 Unit/g and 0.74 Unit/g and 0.54 Unit/g and 0.58 Unit/g; Side effects of corticosteroids [4]: does not have some of the side effects of corticosteroids; Diameter (mm) T2: −5 min ([5]; 1% topical): 6.0 mm and 6.5 mm and 7.0 mm; Diameter (mm) T3: +115 min ([5]; 1% topical): 5.5 mm and 5.0 mm and 6.0 mm; Diameter (mm) T1: −180 min ([5]; 1% topical): 6.0 mm and 6.5 mm
C[C@@H]1C[C@H]2[C@@H]3CCC4=CC(=O)C=C[C@]4(C)[C@@]3(F)[C@@H](O)C[C@]2(C)[C@@]1(O)C(=O)CO [Dex, dexamethasone]	25	75	100	–	–	5.5 mm and 6.5 mm and 6.0 mm and 7.0 mm and 7.5 mm	5.5 mm and 6.0 mm and 4.5 mm and 5.0 mm and 6.5 mm	6.0 mm and 7.0 mm and 5.5 mm and 6.5 mm	–	–	–	Clinical score expressed as percentage of eyes, Score (%) 1 ([3]; 0.1% topical, +115 min): 75%; Clinical score expressed as percentage of eyes, Score (%) 1 ([3]; 0.1% topical, −5 min): 25%
CC(C(=O)O)c1ccc(-c2ccccc2)c(F)c1 (centres unmarked) [F, flurbiprofen]	–	–	–	–	–	–	–	–	–	–	–	Clinical score expressed as percentage of eyes, Score (%) 2 ([3]; 0.03% topical, +115 min): 100%; Clinical score expressed as percentage of eyes, Score (%) 0 ([3]; 0.03% topical, −5 min): 100%; Clinical score expressed as percentage of eyes, Score (%) 0 ([3]; 0.03% topical, −180 min (basal)): 100%; Diameter (mm) T2: −5 min ([5]; 0.03% topical): 6.0 mm and 6.5 mm and 7.0 mm and 5.5 mm; Diameter (mm) T3: +115 min ([5]; 0.03% topical): 4.0 mm and 3.5 mm and 5.5 mm and 5.0 mm and 4.5 mm and 6.0 mm; Diameter (mm) T1: −180 min ([5]; 0.03% topical): 5.0 mm and 7.0 mm and 6.0 mm and 5.5 mm
CCOC(=O)O[C@]1(C(=O)OCCl)CC[C@H]2[C@@H]3CCC4=CC(=O)C=C[C@]4(C)[C@H]3[C@@H](O)C[C@@]21C [LE, loteprednol etabonate]	–	–	–	100	100	–	–	–	6.0 mm and 6.5 mm	4.5 mm and 5.0 mm and 5.5 mm and 6.0 mm	6.0 mm and 6.5 mm	Clinical score expressed as percentage of eyes, Score (%) 1 ([3]; 0.5% topical, +115 min): 75%; Clinical score expressed as percentage of eyes, Score (%) 2 ([3]; 0.5% topical, +115 min): 25%
